From US20170128720A1, “METHODS AND DEVICES FOR MODULATING GENE EXPRESSION AND ENZYME ACTIVITY” (VOMARIS INNOVATIONS, INC, priority 2014, published 2017) come the findings set out here.

Read-outs that look alike come from different tables or passages of the source.

For test [1], the system named is HUVEC cells. The test can be described thus: EF-induced reorientation of endothelial cells, drug inhibition (orientation index Oi). The format is cell-based.
Description: HUVEC cells were seeded in a trough formed by two parallel (1 cm apart) strips of glass coverslip (No. 1, length of 22 mm) fixed to the base of the dish with silicone grease. Scratch lines were made perpendicular to the long axis of the chamber with a fine sterile needle and used as reference marks for directed cell migration. Cells were incubated for 24-48 hours (37° C., 5% CO2) before a roof coverslip was applied and sealed with silicone grease. The final dimensions of the chamber, through which current was passed, were 22×10×0.2 mm. Agar-salt bridges not less than 15 cm long were used to connect silver/silver-chloride electrodes in beakers of Steinberg's solution (58 mM NaCl, 0.67 mM KCl, 0.44 mM Ca(NO3)2, 1.3 mM MgSO4, 4.6 mM Trizma base, pH 7.8-8.0), to pools of excess culture medium at either side of the chamber. Field strengths were measured directly at the beginning of, the end of and during each experiment. No fluctuations in field strength were observed. […] The same concentration of drug was present during EF (electric field) exposure in a CO2 incubator.
A series of images was taken with an image analyser immediately before EF exposure and at 4, 8 and 24 hours of EF exposure. Cell orientation was quantified as an orientation index (Oi), which is defined as Oi=cos 2(α), where α is the angle formed by the long axis of a cell with a line drawn perpendicular to the field lines. A cell with its long axis parallel to the vector of the EF will have an Oi of −1, and a cell with its long axis exactly perpendicular to the EF vector will have an Oi of +1. A randomly oriented population of cells will have an average Oi {defined as [Σn cos 2(α)]÷n} of 0. The significance of this two-dimensional orientation distribution against randomness was calculated using Rayleigh's distribution. A long:short axis ratio was calculated for assessment of elongation.
Test [2] has as its system HUVEC cells. The test can be described thus: EF-induced elongation of endothelial cells, drug inhibition (long:short axis ratio). The format is cell-based. The following applies: for long:short axis ratio / long axis in EF-treated cells: drug 50 μM. On the procedure: HUVEC cells were seeded in a trough formed by two parallel (1 cm apart) strips of glass coverslip (No. 1, length of 22 mm) fixed to the base of the dish with silicone grease. Scratch lines were made perpendicular to the long axis of the chamber with a fine sterile needle and used as reference marks for directed cell migration. Cells were incubated for 24-48 hours (37° C., 5% CO2) before a roof coverslip was applied and sealed with silicone grease. The final dimensions of the chamber, through which current was passed, were 22×10×0.2 mm. Agar-salt bridges not less than 15 cm long were used to connect silver/silver-chloride electrodes in beakers of Steinberg's solution (58 mM NaCl, 0.67 mM KCl, 0.44 mM Ca(NO3)2, 1.3 mM MgSO4, 4.6 mM Trizma base, pH 7.8-8.0), to pools of excess culture medium at either side of the chamber. Field strengths were measured directly at the beginning of, the end of and during each experiment. No fluctuations in field strength were observed. […] (50 μM), the Rho kinase inhibitor Y27632 (50 μM), both Akt and Rho kinase inhibitors (10 μM each) or latrunculin (50 nM) for 1 hour before EF stimulation. The same concentration of drug was present during EF (electric field) exposure in a CO2 incubator.
A series of images was taken with an image analyser immediately before EF exposure and at 4, 8 and 24 hours of EF exposure. Cell orientation was quantified as an orientation index (Oi), which is defined as Oi=cos 2(α), where α is the angle formed by the long axis of a cell with a line drawn perpendicular to the field lines. A cell with its long axis parallel to the vector of the EF will have an Oi of −1, and a cell with its long axis exactly perpendicular to the EF vector will have an Oi of +1. […] The significance of this two-dimensional orientation distribution against randomness was calculated using Rayleigh's distribution. A long:short axis ratio was calculated for assessment of elongation.
HUVEC cells elongated dramatically in an EF. […] We quantified the elongation of the cells using a long:short axis ratio. […]

The mark [3] stands for this setting: drug 50 μM, 1 hour before and during EF.

With “1-L-6-hydroxymethyl-chiro-inositol 2-[(R)-2-O-methyl-3-O-octadecylcarbonate] [Akt inhibitor]”, the “reorientation / orientation response of cells in an EF” value (“reorientation / orientation response” for short) in the test on HUVEC cells [1] (setting [3]) is on record as “significantly decreased”. For the same molecule, the “long:short axis ratio / long axis in EF-treated cells” value in the test on HUVEC cells [2] is given as “significantly decreased”.

With `C/C1=C/C(=O)O[C@@H]2C[C@@H](CC[C@H](C)/C=C\C=C\CC1)O[C@@](O)([C@@H]1CSC(=O)N1)C2` [Latrunculin A], in the test on HUVEC cells [1] (latrunculin 50 nM), the “orientation response in EF” value was “suppressed the orientation response significantly”. The EF-induced elongation response result in the test with HUVEC cells [2] (latrunculin 50 nM) is listed as “completely abolished”.

For the molecule `N#CC(=C(/N)Sc1ccccc1N)/C(C#N)=C(\N)Sc1ccccc1N` [U0126], in the test with HUVEC cells [1], the “orientation index Oi” value amounted to 0.33±0.03 and the “reorientation / orientation response” value is reported as “decreased the orientation to a similar extent”.

As to `COc1cc2ncnc(Nc3ccc(Cl)cc3F)c2cc1OC` [VEGFR inhibitor, 4-[(4′-chloro-2′-fluoro)phenylamino]-6,7-dimethoxyquinazoline], the “reorientation / orientation response” value in the test on HUVEC cells [1] (setting [3]) is recorded as “completely abolished”.

For the molecule `C[C@@H](N)[C@H]1CC[C@H](C(=O)Nc2ccncc2)CC1` [Y27632], the “orientation index Oi” value with HUVEC cells [1] (10 μM) is 0.55±0.05; in the test on HUVEC cells [1] (20 μM), 0.45±0.05; in the test on HUVEC cells [1] (50 μM), 0.24±0.05. Besides, the “orientation response in EF” value in the test with HUVEC cells [1] (10 μM, 20 μM and 50 μM) was “decreased the orientation response significantly”. For the same molecule, the “long:short axis ratio / long axis in EF-treated cells” value in the test with HUVEC cells [2] was “significantly decreased”.
